From ChEMBL document CHEMBL5120940, “Indolactam Dipeptides as Nanomolar Gli Inhibitors” (ACS Med Chem Lett, 2022)
Activity calls are given as the source filed them. No cut-off for these calls is given here.

System: ASZ001
Assay: Inhibition of GLI in mouse ASZ001 cells assessed as reduction in cell viability in starvation medium at 1.5 uM incubated for 48 hrs by CellTiter assay relative to control
Assay type: cell-based
Conditions: not given

Compound	inhibition
CCCCCCn1cc2c3c(cccc31)N(C)[C@@H](C(C)C)C(=O)N[C@H](CO)C2	38%
CC(C)[C@H]1C(=O)N[C@H](CO)Cc2c[nH]c3cccc(c23)N1C [INDOLACTUM]	62%

System: not listed separately
Assay: Inhibition of GLI in SAG induced mouse Shh Light II cells assessed as residual Smo-dependent Gli luciferase activity in starvation medium incubated for 30 hrs by dual luciferase assay
Assay type: cell-based
Conditions: not given

IC50	Compound
195 nM	CC(=O)n1cc2c3c(cccc31)N(C)[C@@H](C(C)C)C(=O)N[C@H](CO)C2
113 nM	CCCCCCn1cc2c3c(cccc31)N(C)[C@@H](C(C)C)C(=O)N[C@H](CO)C2
3460 nM	COC(=O)[C@@H]1Cc2c[nH]c3cccc(c23)N(C)[C@@H](C(C)C)C(=O)N1
> 5000 nM	C=CC(C)(C)c1ccc2c3c(c[nH]c13)C[C@@H](CO)NC(=O)[C@H](C(C)C)N2C [PENDOLMYCIN]
33 nM	CCC(C)[C@H]1C(=O)N[C@H](CO)Cc2c[nH]c3cccc(c23)N1C (some centres not stated)
478 nM	COC[C@@H]1Cc2cn(C)c3cccc(c23)N(C)[C@@H](C(C)C)C(=O)N1
37 nM	CS(=O)(=O)c1ccc(C(=O)Nc2ccc(Cl)c(-c3ccccn3)c2)c(Cl)c1 [VISMODEGIB]

Second part, the molecule before the results:

Compound	IC50
CC(C)[C@H]1C(=O)N[C@H](CO)Cc2cn(C)c3cccc(c23)N1C	69 nM
CC(C)[C@H]1C(=O)N[C@H](CO)Cc2c[nH]c3c(Br)ccc(c23)N1C	1280 nM
C=C[C@@](C)(CCC=C(C)C)c1ccc2c3c(c[nH]c13)C[C@@H](CO)NC(=O)[C@H](C(C)C)N2C	> 5000 nM
CC(C)[C@H]1C(=O)N[C@H](CO)Cc2cn(C(C)C)c3cccc(c23)N1C	309 nM
CC(C)[C@H]1C(=O)N[C@@H](CO)Cc2c[nH]c3cccc(c23)N1C	> 5000 nM
CC(C)[C@H]1C(=O)N[C@H](CO)Cc2c[nH]c3cccc(c23)N1C [INDOLACTUM]	33 nM

System: not listed separately
Assay: Inhibition of GLI in mouse ASZ001 cells assessed as reduction in cell viability in starvation medium incubated for 48 hrs by CellTiter assay
Assay type: cell-based
Conditions: ASZ001, 48 h

Compound	IC50
CC(C)[C@H]1C(=O)N[C@H](CO)Cc2cc(NC(=O)/C=C/C=C/c3ccc(C(F)(F)F)cc3)ccc2N1C (stereo in doubt)	0.16 nM
CCCCCCn1cc2c3c(cccc31)N(C)[C@@H](C(C)C)C(=O)N[C@H](CO)C2	0.5 nM
CS(=O)(=O)c1ccc(C(=O)Nc2ccc(Cl)c(-c3ccccn3)c2)c(Cl)c1 [VISMODEGIB]	2 nM

System: NIH/3T3
Assay: Inhibition of GLI in mouse NIH/3T3 cells assessed as reduction in CMV-driven firefly luciferase activity in starvation medium at 100 nM incubated for 30 hrs by Bright-Glo luciferase assay
Assay type: cell-based
Conditions: not given

Compound	Activity
CC(C)[C@H]1C(=O)N[C@H](CO)Cc2cn(C)c3cccc(c23)N1C	Active
CCCCCCn1cc2c3c(cccc31)N(C)[C@@H](C(C)C)C(=O)N[C@H](CO)C2	Active
CCC(C)[C@H]1C(=O)N[C@H](CO)Cc2c[nH]c3cccc(c23)N1C (some centres not stated)	Active
CC(C)[C@H]1C(=O)N[C@H](CO)Cc2c[nH]c3cccc(c23)N1C [INDOLACTUM]	Active

System: Sufu-KO-LIGHT
Assay: Inhibition of GLI in SAG induced mouse Sufu-KO-LIGHT cells assessed as residual Smo-independent Gli luciferase activity in starvation medium at 100 nM incubated for 30 hrs by dual luciferase assay
Assay type: cell-based
Conditions: not given

Compound	Activity
CC(C)[C@H]1C(=O)N[C@H](CO)Cc2cn(C)c3cccc(c23)N1C	42%
CC(=O)n1cc2c3c(cccc31)N(C)[C@@H](C(C)C)C(=O)N[C@H](CO)C2	67%
CC(C)[C@H]1C(=O)N[C@H](CO)Cc2c[nH]c3c(Br)ccc(c23)N1C	23%
C=C[C@@](C)(CCC=C(C)C)c1ccc2c3c(c[nH]c13)C[C@@H](CO)NC(=O)[C@H](C(C)C)N2C	47%
CCCCCCn1cc2c3c(cccc31)N(C)[C@@H](C(C)C)C(=O)N[C@H](CO)C2	25%
COC(=O)[C@@H]1Cc2c[nH]c3cccc(c23)N(C)[C@@H](C(C)C)C(=O)N1	67%
CC(C)[C@H]1C(=O)N[C@H](CO)Cc2cn(C(C)C)c3cccc(c23)N1C	78%
C=CC(C)(C)c1ccc2c3c(c[nH]c13)C[C@@H](CO)NC(=O)[C@H](C(C)C)N2C [PENDOLMYCIN]	46%
CCC(C)[C@H]1C(=O)N[C@H](CO)Cc2c[nH]c3cccc(c23)N1C (some centres not stated)	36%
CC(C)[C@H]1C(=O)N[C@@H](CO)Cc2c[nH]c3cccc(c23)N1C	78%
CC(C)[C@H]1C(=O)N[C@H](CO)Cc2c[nH]c3cccc(c23)N1C [INDOLACTUM]	39%
COC[C@@H]1Cc2cn(C)c3cccc(c23)N(C)[C@@H](C(C)C)C(=O)N1	69%
CS(=O)(=O)c1ccc(C(=O)Nc2ccc(Cl)c(-c3ccccn3)c2)c(Cl)c1 [VISMODEGIB]	96%

System: not listed separately
Assay: Inhibition of GLI in SAG induced mouse Sufu-KO-LIGHT cells assessed as residual Smo-independent Gli luciferase activity in starvation medium incubated for 30 hrs by dual luciferase assay
Assay type: cell-based
Conditions: not given

IC50	Compound
655 nM	CC(=O)n1cc2c3c(cccc31)N(C)[C@@H](C(C)C)C(=O)N[C@H](CO)C2
7.9 nM	CCCCCCn1cc2c3c(cccc31)N(C)[C@@H](C(C)C)C(=O)N[C@H](CO)C2
77 nM	COC(=O)[C@@H]1Cc2c[nH]c3cccc(c23)N(C)[C@@H](C(C)C)C(=O)N1
> 5000 nM	C=CC(C)(C)c1ccc2c3c(c[nH]c13)C[C@@H](CO)NC(=O)[C@H](C(C)C)N2C [PENDOLMYCIN]
6.8 nM	CCC(C)[C@H]1C(=O)N[C@H](CO)Cc2c[nH]c3cccc(c23)N1C (some centres not stated)
1820 nM	COC[C@@H]1Cc2cn(C)c3cccc(c23)N(C)[C@@H](C(C)C)C(=O)N1
> 5000 nM	CS(=O)(=O)c1ccc(C(=O)Nc2ccc(Cl)c(-c3ccccn3)c2)c(Cl)c1 [VISMODEGIB]

Continued, molecule first:

Compound	IC50
CC(C)[C@H]1C(=O)N[C@H](CO)Cc2cn(C)c3cccc(c23)N1C	20 nM
CC(C)[C@H]1C(=O)N[C@H](CO)Cc2c[nH]c3c(Br)ccc(c23)N1C	264 nM
C=C[C@@](C)(CCC=C(C)C)c1ccc2c3c(c[nH]c13)C[C@@H](CO)NC(=O)[C@H](C(C)C)N2C	> 5000 nM
CC(C)[C@H]1C(=O)N[C@H](CO)Cc2cn(C(C)C)c3cccc(c23)N1C	464 nM
CC(C)[C@H]1C(=O)N[C@@H](CO)Cc2c[nH]c3cccc(c23)N1C	1920 nM
CC(C)[C@H]1C(=O)N[C@H](CO)Cc2c[nH]c3cccc(c23)N1C [INDOLACTUM]	13 nM

System: not listed separately
Assay: Inhibition of GLI in SAG induced mouse C3H10T1/2 cells assessed reduction Gli-dependent differentiation by measuring ALP activity incubated for 48 hrs by chemiluminescence assay
Assay type: cell-based
Conditions: C3H 10T1/2, 48 h

IC50	Compound
27 nM	CCCCCCn1cc2c3c(cccc31)N(C)[C@@H](C(C)C)C(=O)N[C@H](CO)C2
30 nM	CCC(C)[C@H]1C(=O)N[C@H](CO)Cc2c[nH]c3cccc(c23)N1C (some centres not stated)
58 nM	CS(=O)(=O)c1ccc(C(=O)Nc2ccc(Cl)c(-c3ccccn3)c2)c(Cl)c1 [VISMODEGIB]

Second part, the molecule before the results:

Compound	IC50
CC(C)[C@H]1C(=O)N[C@H](CO)Cc2cn(C)c3cccc(c23)N1C	498 nM
CC(C)[C@H]1C(=O)N[C@@H](CO)Cc2c[nH]c3cccc(c23)N1C	> 5000 nM
CC(C)[C@H]1C(=O)N[C@H](CO)Cc2c[nH]c3cccc(c23)N1C [INDOLACTUM]	171 nM

System: Shh Light II
Assay: Inhibition of GLI in SAG induced mouse Shh Light II cells assessed as residual Smo-dependent Gli luciferase activity in starvation medium at 100 nM incubated for 30 hrs by dual luciferase assay
Assay type: cell-based
Conditions: not given

Compound	Activity
CC(C)[C@H]1C(=O)N[C@H](CO)Cc2cn(C)c3cccc(c23)N1C	66%
CC(=O)n1cc2c3c(cccc31)N(C)[C@@H](C(C)C)C(=O)N[C@H](CO)C2	73%
CC(C)[C@H]1C(=O)N[C@H](CO)Cc2c[nH]c3c(Br)ccc(c23)N1C	70%
C=C[C@@](C)(CCC=C(C)C)c1ccc2c3c(c[nH]c13)C[C@@H](CO)NC(=O)[C@H](C(C)C)N2C	90%
CCCCCCn1cc2c3c(cccc31)N(C)[C@@H](C(C)C)C(=O)N[C@H](CO)C2	83%
COC(=O)[C@@H]1Cc2c[nH]c3cccc(c23)N(C)[C@@H](C(C)C)C(=O)N1	99%
CC(C)[C@H]1C(=O)N[C@H](CO)Cc2cn(C(C)C)c3cccc(c23)N1C	96%
C=CC(C)(C)c1ccc2c3c(c[nH]c13)C[C@@H](CO)NC(=O)[C@H](C(C)C)N2C [PENDOLMYCIN]	60%
CCC(C)[C@H]1C(=O)N[C@H](CO)Cc2c[nH]c3cccc(c23)N1C (some centres not stated)	53%
CC(C)[C@H]1C(=O)N[C@@H](CO)Cc2c[nH]c3cccc(c23)N1C	100%
CC(C)[C@H]1C(=O)N[C@H](CO)Cc2c[nH]c3cccc(c23)N1C [INDOLACTUM]	68%
COC[C@@H]1Cc2cn(C)c3cccc(c23)N(C)[C@@H](C(C)C)C(=O)N1	86%
CS(=O)(=O)c1ccc(C(=O)Nc2ccc(Cl)c(-c3ccccn3)c2)c(Cl)c1 [VISMODEGIB]	43%
